{"source": "paper PMC9295122", "about": "“Sialic Acid Derivatives Inhibit SiaT Transporters and Delay Bacterial Growth” (ACS Chemical Biology, 2022)", "key": {"S. aureus COL": {"tested_on": "S. aureus COL", "test": "Growth in carbon-limited MM with inhibitor only, S. aureus", "format": "cell-based, Staphylococcus aureus", "conditions": "MM with casamino acids, compound 0.5 mM", "procedure": "We first addressed whether these bacteria were able to catabolize the inhibitors and potentially use them as a carbon source for growth. Each strain was grown in carbon-limited defined minimal media (MM), without any carbon source other than sodium citrate for P. mirabilis and casamino acids for S. aureus, and supplemented with 3e and 3f. […] With these promising results, bacterial growth assays were performed in MM supplemented with Neu5Ac at a concentration of 3.2 mM and with 0.5 mM of compounds 3e and 3f (Figure 6a,b). The lag phase duration was determined as the time for the initial population density to increase twofold (see the horizontal dashed lines in Figure 6a,b). The effects were significant in the case of S. aureus, where a delayed growth of 4.4 and 9.4 h (P < 0.001) for compounds 3e and 3f, respectively, was observed. In the case of P. mirabilis, compound 3e indicated a delay in growth (3 h, P = 0.06), while no effect was recorded for compound 3f.\nFigure S4. S. aureus COL (A) and P. mirabilis HI4320 (B) grown in defined carbon-limited minimal media (dotted line), with the addition of compound 3e (0.5 mM, solid line) or compound 3f (0.5 mM, dashed line). Average values of two biological replicates (n=2) each including two technical replicates are presented.\n(1 picture or pasted object on this page, not shown here)"}, "[1]": {"tested_on": "E. coli JW3193 ΔNanT expressing PmSiaT", "test": "Growth of E. coli JW3193 ΔNanT expressing PmSiaT", "format": "cell-based, Escherichia coli", "conditions": "for effect on growth on sialic acid: 0.5 mM sialic acid + 1 mM inhibitor; for growth with inhibitor as only carbon source: 1 mM inhibitor", "description": "To further investigate bacterial growth inhibition, we employed a model system of E. coli JW3193 ΔNanT expressing the SaSiaT and PmSiaT transporters. We designed these experiments to test if compounds 3e and 3f could inhibit the Neu5Ac transport in vivo because, without an active sialic acid transporter, E. coli JW3193 ΔNanT cannot grow on Neu5Ac.[16],[21]\nFor the bacterial growth experiments, the pJ422-01 plasmid containing the relevant SiaT or NanT gene was transformed into the E. coli JW3193 ΔnanT strain.[21] Throughout the experiments, strains containing the pJ422-01 plasmid were grown in media supplemented with 25 μg/mL Zeocin. E. coli BW25113, empty E. coli JW3193, and E. coli JW3193 with pJ422-01 containing the NanT gene were also used as controls. Strains were initially plated out from glycerol stocks before a single colony was picked and grown overnight in low salt LB media at 37 °C, with shaking at 180 rpm. Overnight cultures were diluted to an OD600 of 0.05 using low salt LB [supplemented with 1 mM isopropyl β-D-1-thiogalactopyranoside (IPTG)], before they were incubated at 37 °C, with shaking at 250 rpm, until they reached an OD600 of 0.3. At this point, 5 mL of each culture was centrifuged at 6000g for 5 min at 25 °C. The supernatants were removed and the cell pellets were resuspended in 5 mL of M9 MM without glucose prior to being centrifuged again at 6000g for 5 min at 25 °C. This wash step was repeated twice more before cells were resuspended to an OD600 of 0.5 in M9 MM without glucose. A Corning Costar Flat Bottom 96 Well TC-treated microplate was set up with 180 μL of M9 MM containing 1 mM IPTG (for the pJ422-01 strains) and either 5 mM glucose, 0.5 mM sialic acid, and 0.5 mM sialic acid with 1 mM of either inhibitor, or 1 mM of either inhibitor as a carbon source. To the 180 μL of media, 20 μL of each culture were added to the plate (OD600 of 0.05), before it was loaded into a FLUOstar Omega microplate reader (BMG Labtech). Growth was recorded at 600 nm every 10 min at 37 °C, with shaking at 300 rpm. Growth curves represent the mean and standard deviation of measurement from triplicate measurements (glucose/no carbon source in duplicate).\nFig. S5. Growth of E. coli JW3193 ΔNanT expressing the SaSiaT and PmSiaT transporters from a plasmid and using various carbon sources and in the presence or absence of inhibitors, 3e and 3f. […]\n(B) PmSiaT is again expressed from a plasmid in the E. coli strain JW3193 ΔNanT, where the native sialic acid transporter (NanT) is deleted. The strain grows normally when in media with glucose (black line). There is no growth in the absence of any carbon source (grey line). In the presence of sialic acid at 0.5 mM the strain grows to an OD of ~0.5 (red line), showing that the transporter is functional. […]\nsubstrates. […]"}}, "note": "Entries after “also recorded” stand apart in the source; their conditions may differ."}
{"smiles": "CC(=O)NC1C(OCc2cc(Br)cc(Br)c2)CC(O)(C(=O)O)OC1C(O)C(O)CO", "note": "(stereo not drawn) [Compound 3f]", "values": [{"measurement": "ability to catabolize compound (growth vs MM only)", "setting": "S. aureus COL", "value": "no ability to catabolize"}, {"measurement": "effect on growth on sialic acid", "setting": "[1]", "value": "no effect on growth; also recorded: neither inhibitor seemed to alter bacterial growth"}, {"measurement": "growth with inhibitor as only carbon source", "setting": "[1]", "value": "no growth"}]}
{"smiles": "CC(=O)NC1C(OCc2cc(F)cc(F)c2)CC(O)(C(=O)O)OC1C(O)C(O)CO", "note": "(stereo not drawn) [Compound 3e]", "values": [{"measurement": "ability to catabolize compound (growth vs MM only)", "setting": "S. aureus COL", "value": "no ability to catabolize"}, {"measurement": "effect on growth on sialic acid", "setting": "[1]", "value": "no effect on growth; also recorded: neither inhibitor seemed to alter bacterial growth"}, {"measurement": "growth with inhibitor as only carbon source", "setting": "[1]", "value": "no growth"}]}
